According to ChEMBL document CHEMBL4507315 (2021):

Tests used:
[1] = system: Tyrosine-protein kinase ABL1 (Homo sapiens), P00519 [F317I]; conditions: Compound concentration 100.0 nM
[2] = biological target: Tyrosine-protein kinase ABL1 (Homo sapiens) (UniProt P00519); conditions: Compound concentration 100.0 nM
[3] = biological target: Activin receptor type-1 (Homo sapiens) (UniProt Q04771); conditions: Compound concentration 100.0 nM
[4] = biological target: BMP-2-inducible protein kinase (Homo sapiens) (UniProt Q9NSY1); conditions: Compound concentration 100.0 nM
[5] = biological target: Calcium/calmodulin-dependent protein kinase type II subunit beta (Homo sapiens) (UniProt Q13554); conditions: Compound concentration 100.0 nM
[6] = biological target: Calcium/calmodulin-dependent protein kinase kinase 2 (Homo sapiens) (UniProt Q96RR4); conditions: Compound concentration 100.0 nM
[7] = biological target: Cyclin-dependent kinase 11B (Homo sapiens) (UniProt P21127); conditions: Compound concentration 100.0 nM
[8] = biological target: Cyclin-dependent kinase 13 (Homo sapiens) (UniProt Q14004); conditions: Compound concentration 100.0 nM
[9] = biological target: Cyclin-dependent kinase 8 (Homo sapiens) (UniProt P49336); conditions: Compound concentration 100.0 nM
Cyclin-dependent kinase 8 (Homo sapiens), sequence (P49336 whole entry): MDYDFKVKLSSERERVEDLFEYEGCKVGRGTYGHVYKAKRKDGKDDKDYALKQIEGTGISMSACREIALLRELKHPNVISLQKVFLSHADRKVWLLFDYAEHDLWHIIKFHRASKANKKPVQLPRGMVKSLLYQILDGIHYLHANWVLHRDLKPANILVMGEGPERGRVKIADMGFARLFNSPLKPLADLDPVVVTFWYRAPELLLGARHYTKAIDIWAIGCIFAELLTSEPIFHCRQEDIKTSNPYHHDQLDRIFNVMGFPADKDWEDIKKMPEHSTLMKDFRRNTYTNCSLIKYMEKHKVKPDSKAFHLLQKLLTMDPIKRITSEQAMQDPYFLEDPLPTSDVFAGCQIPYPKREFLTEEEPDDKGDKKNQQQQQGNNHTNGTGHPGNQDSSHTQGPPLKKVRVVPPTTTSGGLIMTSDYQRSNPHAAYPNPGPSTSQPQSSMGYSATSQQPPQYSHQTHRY

[10] = biological target: Cyclin-dependent kinase-like 1 (Homo sapiens) (UniProt Q00532); conditions: Compound concentration 100.0 nM
[11] = biological target: Citron Rho-interacting kinase (Homo sapiens) (UniProt O14578); conditions: Compound concentration 100.0 nM
[12] = biological target: Myotonin-protein kinase (Homo sapiens) (UniProt Q09013); conditions: Compound concentration 100.0 nM
[13] = biological target: Dual specificity tyrosine-phosphorylation-regulated kinase 1A (Homo sapiens) (UniProt Q13627); conditions: Compound concentration 100.0 nM
[14] = biological target: Ephrin type-B receptor 4 (Homo sapiens) (UniProt P54760); conditions: Compound concentration 100.0 nM
Ephrin type-B receptor 4 (Homo sapiens), sequence (P54760 whole entry): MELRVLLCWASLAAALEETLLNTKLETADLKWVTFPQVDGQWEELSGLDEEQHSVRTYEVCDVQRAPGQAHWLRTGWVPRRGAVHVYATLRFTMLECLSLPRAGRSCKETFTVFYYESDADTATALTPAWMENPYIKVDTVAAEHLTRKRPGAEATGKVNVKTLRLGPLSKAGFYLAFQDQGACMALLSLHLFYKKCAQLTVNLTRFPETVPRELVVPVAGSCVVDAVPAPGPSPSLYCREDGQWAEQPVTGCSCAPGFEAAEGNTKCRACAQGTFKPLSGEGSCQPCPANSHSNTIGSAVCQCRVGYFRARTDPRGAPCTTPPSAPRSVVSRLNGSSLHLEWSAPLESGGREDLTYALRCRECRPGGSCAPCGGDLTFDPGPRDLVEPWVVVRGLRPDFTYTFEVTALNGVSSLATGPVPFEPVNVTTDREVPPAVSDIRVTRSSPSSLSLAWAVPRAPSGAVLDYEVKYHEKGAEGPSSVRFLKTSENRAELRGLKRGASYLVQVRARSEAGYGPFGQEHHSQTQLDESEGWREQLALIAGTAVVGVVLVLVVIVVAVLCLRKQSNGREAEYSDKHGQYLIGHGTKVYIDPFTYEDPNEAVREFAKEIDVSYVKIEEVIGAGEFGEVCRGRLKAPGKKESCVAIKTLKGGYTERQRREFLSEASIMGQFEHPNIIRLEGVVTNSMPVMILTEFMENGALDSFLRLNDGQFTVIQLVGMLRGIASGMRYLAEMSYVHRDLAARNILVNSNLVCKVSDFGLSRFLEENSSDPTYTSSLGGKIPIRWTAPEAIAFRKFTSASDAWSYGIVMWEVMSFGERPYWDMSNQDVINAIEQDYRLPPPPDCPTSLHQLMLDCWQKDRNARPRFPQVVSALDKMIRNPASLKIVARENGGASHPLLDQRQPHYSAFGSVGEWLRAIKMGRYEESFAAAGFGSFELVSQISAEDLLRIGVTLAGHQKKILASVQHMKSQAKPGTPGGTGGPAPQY

[15] = biological target: Receptor tyrosine-protein kinase erbB-4 (Homo sapiens) (UniProt Q15303); conditions: Compound concentration 100.0 nM
[16] = biological target: Mitogen-activated protein kinase 4 (Homo sapiens) (UniProt P31152); conditions: Compound concentration 100.0 nM
[17] = biological target: Serine/threonine-protein kinase/endoribonuclease IRE1 (Homo sapiens) (UniProt O75460); conditions: Compound concentration 100.0 nM
[18] = biological target: Tyrosine-protein kinase Fes/Fps (Homo sapiens) (UniProt P07332); conditions: Compound concentration 100.0 nM
[19] = system: Fibroblast growth factor receptor 3 (Homo sapiens), P22607 [G697C]; conditions: Compound concentration 100.0 nM
[20] = biological target: Cyclin-G-associated kinase (Homo sapiens) (UniProt O14976); conditions: Compound concentration 100.0 nM
[21] = biological target: Rhodopsin kinase GRK1 (Homo sapiens) (UniProt Q15835); conditions: Compound concentration 100.0 nM
[22] = biological target: Serine/threonine-protein kinase MARK1 (Homo sapiens) (UniProt Q9P0L2); conditions: Compound concentration 100.0 nM
[23] = biological target: Serine/threonine-protein kinase 3 (Homo sapiens) (UniProt Q13188); conditions: Compound concentration 100.0 nM
[24] = biological target: Myosin light chain kinase, smooth muscle (Homo sapiens) (UniProt Q15746); conditions: Compound concentration 100.0 nM
[25] = biological target: Myosin-IIIa (Homo sapiens) (UniProt Q8NEV4); conditions: Compound concentration 100.0 nM
[26] = biological target: Mitogen-activated protein kinase 13 (Homo sapiens) (UniProt O15264); conditions: Compound concentration 100.0 nM
[27] = biological target: Cyclin-dependent kinase 14 (Homo sapiens) (UniProt O94921); conditions: Compound concentration 100.0 nM
[28] = system: Phosphatidylinositol 4,5-bisphosphate 3-kinase catalytic subunit alpha isoform (Homo sapiens), P42336 [E542K]; conditions: Compound concentration 100.0 nM
[29] = system: Phosphatidylinositol 4,5-bisphosphate 3-kinase catalytic subunit alpha isoform (Homo sapiens), P42336 [E545K]; conditions: Compound concentration 100.0 nM
[30] = system: Phosphatidylinositol 4,5-bisphosphate 3-kinase catalytic subunit alpha isoform (Homo sapiens), P42336 [H1047L]; conditions: Compound concentration 100.0 nM
[31] = biological target: 1-phosphatidylinositol 3-phosphate 5-kinase (Homo sapiens) (UniProt Q9Y2I7); conditions: Compound concentration 100.0 nM
[32] = biological target: Phosphatidylinositol 5-phosphate 4-kinase type-2 gamma (Homo sapiens) (UniProt Q8TBX8); conditions: Compound concentration 100.0 nM
Phosphatidylinositol 5-phosphate 4-kinase type-2 gamma (Homo sapiens), sequence (Q8TBX8 whole entry): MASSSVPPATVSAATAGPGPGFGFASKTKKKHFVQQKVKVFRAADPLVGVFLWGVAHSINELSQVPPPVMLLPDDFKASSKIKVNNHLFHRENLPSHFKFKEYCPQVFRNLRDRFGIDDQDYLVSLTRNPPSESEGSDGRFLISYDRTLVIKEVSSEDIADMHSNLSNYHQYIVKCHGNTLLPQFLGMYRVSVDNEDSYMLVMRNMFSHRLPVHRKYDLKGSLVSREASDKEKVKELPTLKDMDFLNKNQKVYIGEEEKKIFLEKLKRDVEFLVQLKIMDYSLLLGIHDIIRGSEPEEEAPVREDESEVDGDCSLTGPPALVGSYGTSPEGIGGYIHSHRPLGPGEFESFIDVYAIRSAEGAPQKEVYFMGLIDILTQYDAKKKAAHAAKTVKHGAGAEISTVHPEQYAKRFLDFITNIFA

[33] = biological target: Serine/threonine-protein kinase Sgk2 (Homo sapiens) (UniProt Q9HBY8); conditions: Compound concentration 100.0 nM
Serine/threonine-protein kinase Sgk2 (Homo sapiens), sequence (Q9HBY8 whole entry): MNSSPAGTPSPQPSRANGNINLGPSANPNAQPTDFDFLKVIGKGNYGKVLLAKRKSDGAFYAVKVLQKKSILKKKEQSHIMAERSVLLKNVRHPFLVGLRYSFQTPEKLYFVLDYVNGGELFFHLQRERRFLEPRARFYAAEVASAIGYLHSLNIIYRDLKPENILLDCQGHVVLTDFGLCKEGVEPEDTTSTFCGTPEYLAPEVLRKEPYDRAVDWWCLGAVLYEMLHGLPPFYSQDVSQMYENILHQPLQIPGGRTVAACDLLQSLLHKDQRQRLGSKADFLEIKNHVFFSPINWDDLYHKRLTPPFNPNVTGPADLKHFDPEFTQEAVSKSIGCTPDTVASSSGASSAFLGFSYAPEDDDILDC

[34] = biological target: STE20-like serine/threonine-protein kinase (Homo sapiens) (UniProt Q9H2G2); conditions: Compound concentration 100.0 nM
STE20-like serine/threonine-protein kinase (Homo sapiens), sequence (Q9H2G2 whole entry, looked up): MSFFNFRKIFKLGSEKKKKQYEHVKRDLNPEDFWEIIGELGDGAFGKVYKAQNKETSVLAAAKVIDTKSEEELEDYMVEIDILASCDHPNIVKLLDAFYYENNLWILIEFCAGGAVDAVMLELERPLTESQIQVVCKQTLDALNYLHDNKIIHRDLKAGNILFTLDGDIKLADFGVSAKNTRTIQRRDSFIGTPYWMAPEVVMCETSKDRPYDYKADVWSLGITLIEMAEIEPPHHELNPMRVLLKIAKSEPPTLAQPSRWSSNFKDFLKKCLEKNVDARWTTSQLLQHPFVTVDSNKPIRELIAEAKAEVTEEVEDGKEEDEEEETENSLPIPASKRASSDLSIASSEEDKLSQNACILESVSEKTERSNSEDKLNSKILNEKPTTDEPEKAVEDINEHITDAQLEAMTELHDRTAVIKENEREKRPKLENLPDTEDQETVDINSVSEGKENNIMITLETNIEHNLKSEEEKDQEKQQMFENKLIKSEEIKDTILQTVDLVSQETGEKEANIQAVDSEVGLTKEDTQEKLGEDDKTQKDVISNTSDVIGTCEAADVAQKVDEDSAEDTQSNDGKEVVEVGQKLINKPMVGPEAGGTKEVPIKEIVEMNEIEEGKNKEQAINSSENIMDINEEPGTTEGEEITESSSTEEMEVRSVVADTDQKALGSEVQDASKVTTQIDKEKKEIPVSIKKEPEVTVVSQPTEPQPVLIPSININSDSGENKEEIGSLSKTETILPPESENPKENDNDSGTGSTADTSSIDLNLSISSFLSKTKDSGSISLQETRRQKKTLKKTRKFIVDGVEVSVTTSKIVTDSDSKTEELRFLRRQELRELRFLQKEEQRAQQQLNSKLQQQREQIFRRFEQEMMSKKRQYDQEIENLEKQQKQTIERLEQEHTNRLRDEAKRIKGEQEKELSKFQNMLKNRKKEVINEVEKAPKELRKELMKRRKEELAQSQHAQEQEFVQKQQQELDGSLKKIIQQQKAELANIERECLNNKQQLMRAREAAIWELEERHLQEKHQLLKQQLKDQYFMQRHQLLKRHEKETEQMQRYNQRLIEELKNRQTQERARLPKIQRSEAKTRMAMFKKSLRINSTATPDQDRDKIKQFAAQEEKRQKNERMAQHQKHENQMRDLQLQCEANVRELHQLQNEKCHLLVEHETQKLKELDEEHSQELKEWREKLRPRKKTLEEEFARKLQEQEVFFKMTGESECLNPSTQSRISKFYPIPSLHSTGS

[35] = biological target: Serine/threonine-protein kinase 35 (Homo sapiens) (UniProt Q8TDR2); conditions: Compound concentration 100.0 nM
[36] = biological target: Tyrosine-protein kinase SYK (Homo sapiens) (UniProt P43405); conditions: Compound concentration 100.0 nM
[37] = biological target: Activated CDC42 kinase 1 (Homo sapiens) (UniProt Q07912); conditions: Compound concentration 100.0 nM
[38] = biological target: Testis-specific serine/threonine-protein kinase 3 (Homo sapiens) (UniProt Q96PN8); conditions: Compound concentration 100.0 nM
[39] = biological target: Tyrosine-protein kinase TXK (Homo sapiens) (UniProt P42681); conditions: Compound concentration 100.0 nM
[40] = biological target: Serine/threonine-protein kinase 25 (Homo sapiens) (UniProt O00506); conditions: Compound concentration 100.0 nM
[41] = biological target: Tyrosine-protein kinase ZAP-70 (Homo sapiens) (UniProt P43403); conditions: Compound concentration 100.0 nM
[42] = biological target: 5-hydroxytryptamine receptor 2A (Homo sapiens) (UniProt P28223); conditions: Compound concentration 10.0 uM
5-hydroxytryptamine receptor 2A (Homo sapiens), sequence (P28223 whole entry): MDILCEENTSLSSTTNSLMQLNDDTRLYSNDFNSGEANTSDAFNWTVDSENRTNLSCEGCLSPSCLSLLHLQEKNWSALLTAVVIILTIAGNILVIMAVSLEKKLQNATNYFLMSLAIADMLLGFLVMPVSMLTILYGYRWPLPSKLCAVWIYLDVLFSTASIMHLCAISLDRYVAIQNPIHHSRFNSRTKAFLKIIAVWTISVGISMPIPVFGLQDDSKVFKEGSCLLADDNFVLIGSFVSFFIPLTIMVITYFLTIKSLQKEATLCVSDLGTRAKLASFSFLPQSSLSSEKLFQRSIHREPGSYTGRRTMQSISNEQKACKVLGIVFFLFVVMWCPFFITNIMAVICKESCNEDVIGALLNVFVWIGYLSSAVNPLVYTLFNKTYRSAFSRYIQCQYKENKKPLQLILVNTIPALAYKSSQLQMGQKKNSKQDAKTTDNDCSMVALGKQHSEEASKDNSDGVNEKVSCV

[43] = biological target: Histamine H3 receptor (Homo sapiens) (UniProt Q9Y5N1); conditions: Compound concentration 10.0 uM
[44] = biological target: Beta-2 adrenergic receptor (Homo sapiens) (UniProt P07550); conditions: Compound concentration 10.0 uM
[45] = biological target: Muscarinic acetylcholine receptor M1 (Homo sapiens) (UniProt P11229); conditions: Compound concentration 10.0 uM

Tyrosine-protein kinase ABL1 (Homo sapiens), P00519 [F317I], sequence (P00519 whole entry F317I): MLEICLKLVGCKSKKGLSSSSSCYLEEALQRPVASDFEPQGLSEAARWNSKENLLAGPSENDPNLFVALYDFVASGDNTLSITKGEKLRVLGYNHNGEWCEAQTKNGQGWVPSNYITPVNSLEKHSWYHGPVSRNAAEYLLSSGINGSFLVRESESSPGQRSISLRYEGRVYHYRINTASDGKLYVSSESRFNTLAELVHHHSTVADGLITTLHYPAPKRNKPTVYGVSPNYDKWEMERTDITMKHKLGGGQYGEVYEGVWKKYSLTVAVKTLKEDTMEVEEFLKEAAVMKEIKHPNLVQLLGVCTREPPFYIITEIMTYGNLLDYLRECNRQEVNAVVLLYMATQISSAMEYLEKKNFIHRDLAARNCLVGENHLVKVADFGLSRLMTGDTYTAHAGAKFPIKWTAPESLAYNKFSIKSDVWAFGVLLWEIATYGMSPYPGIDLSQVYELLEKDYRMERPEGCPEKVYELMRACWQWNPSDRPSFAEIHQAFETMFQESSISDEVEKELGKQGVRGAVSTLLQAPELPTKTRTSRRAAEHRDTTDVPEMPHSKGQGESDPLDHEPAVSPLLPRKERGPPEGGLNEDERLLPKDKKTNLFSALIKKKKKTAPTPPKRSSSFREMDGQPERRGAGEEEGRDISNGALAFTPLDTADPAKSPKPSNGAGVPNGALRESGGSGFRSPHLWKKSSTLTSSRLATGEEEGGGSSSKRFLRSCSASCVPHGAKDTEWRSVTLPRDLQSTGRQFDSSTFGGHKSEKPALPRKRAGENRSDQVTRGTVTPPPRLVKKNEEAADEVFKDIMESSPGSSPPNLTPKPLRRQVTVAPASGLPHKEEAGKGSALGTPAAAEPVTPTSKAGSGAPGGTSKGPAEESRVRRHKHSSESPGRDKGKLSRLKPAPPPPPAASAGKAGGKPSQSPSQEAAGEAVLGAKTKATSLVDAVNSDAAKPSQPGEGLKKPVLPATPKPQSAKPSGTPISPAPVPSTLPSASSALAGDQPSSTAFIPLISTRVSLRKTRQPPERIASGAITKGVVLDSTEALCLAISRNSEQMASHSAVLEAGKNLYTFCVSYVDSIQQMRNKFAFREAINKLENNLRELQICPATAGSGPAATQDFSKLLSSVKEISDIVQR

Nc1c(C(=O)NCc2ccc(C(=O)NCCCC3CCCCC3)cc2)cnn1-c1ccccc1 [SR-318]
inactive: residual activity [1] 100% | residual activity [2] 81% | residual activity [3] 100% | residual activity [4] 100% | residual activity [5] 100% | residual activity [6] 100% | residual activity [7] 100% | residual activity [8] 79% | residual activity [9] 96% | residual activity [10] 100% | residual activity [11] 100% | residual activity [12] 77% | residual activity [13] 100% | residual activity [14] 100% | residual activity [15] 89% | residual activity [16] 100% | residual activity [17] 100% | residual activity [18] 100% | residual activity [19] 87% | residual activity [20] 100% | residual activity [21] 100% | residual activity [22] 79% | residual activity [23] 100% | residual activity [24] 68% | residual activity [25] 100% | residual activity [26] 100% | residual activity [27] 100% | residual activity [28] 100% | residual activity [29] 91% | residual activity [30] 100% | residual activity [31] 100% | residual activity [32] 100% | residual activity [33] 72% | residual activity [34] 80% | residual activity [35] 100% | residual activity [36] 74% | residual activity [37] 89% | residual activity [38] 100% | residual activity [39] 83% | residual activity [40] 82% | residual activity [41] 100% | inhibition [42] 23.7% | inhibition [43] -2.98% | inhibition [44] 6.62% | inhibition [45] 31.1%

O=C(NCCCC1CCCCC1)c1ccc(CNC(=O)c2cnn(-c3ccccc3)c2C(F)(F)F)cc1 [SR-321]
inactive: residual activity [1] 100% | residual activity [2] 93% | residual activity [3] 100% | residual activity [4] 100% | residual activity [5] 96% | residual activity [6] 100% | residual activity [7] 100% | residual activity [8] 100% | residual activity [9] 97% | residual activity [10] 80% | residual activity [11] 86% | residual activity [12] 83% | residual activity [13] 99% | residual activity [14] 95% | residual activity [15] 100% | residual activity [16] 100% | residual activity [17] 94% | residual activity [18] 100% | residual activity [19] 100% | residual activity [20] 100% | residual activity [21] 94% | residual activity [22] 100% | residual activity [23] 100% | residual activity [24] 100% | residual activity [25] 98% | residual activity [26] 100% | residual activity [27] 100% | residual activity [28] 74% | residual activity [29] 68% | residual activity [30] 86% | residual activity [31] 65% | residual activity [32] 99% | residual activity [33] 95% | residual activity [34] 100% | residual activity [35] 100% | residual activity [36] 100% | residual activity [37] 100% | residual activity [38] 100% | residual activity [39] 100% | residual activity [40] 81% | residual activity [41] 100% | inhibition [42] 8.57% | inhibition [43] 9.12% | inhibition [44] 12.4% | inhibition [45] 11.8%
